# Patent publication US20260234124A1, “Substituted Pyrazolyl-Pyridinyl Compounds as Ligand Directed Degraders of IRAK3” (Celgene Corporation, priority 2022, published 2026)
# Biological target: T1, IRAK3 (Homo sapiens, UniProt Q9Y616)
# T1 sequence (Q9Y616 1-596): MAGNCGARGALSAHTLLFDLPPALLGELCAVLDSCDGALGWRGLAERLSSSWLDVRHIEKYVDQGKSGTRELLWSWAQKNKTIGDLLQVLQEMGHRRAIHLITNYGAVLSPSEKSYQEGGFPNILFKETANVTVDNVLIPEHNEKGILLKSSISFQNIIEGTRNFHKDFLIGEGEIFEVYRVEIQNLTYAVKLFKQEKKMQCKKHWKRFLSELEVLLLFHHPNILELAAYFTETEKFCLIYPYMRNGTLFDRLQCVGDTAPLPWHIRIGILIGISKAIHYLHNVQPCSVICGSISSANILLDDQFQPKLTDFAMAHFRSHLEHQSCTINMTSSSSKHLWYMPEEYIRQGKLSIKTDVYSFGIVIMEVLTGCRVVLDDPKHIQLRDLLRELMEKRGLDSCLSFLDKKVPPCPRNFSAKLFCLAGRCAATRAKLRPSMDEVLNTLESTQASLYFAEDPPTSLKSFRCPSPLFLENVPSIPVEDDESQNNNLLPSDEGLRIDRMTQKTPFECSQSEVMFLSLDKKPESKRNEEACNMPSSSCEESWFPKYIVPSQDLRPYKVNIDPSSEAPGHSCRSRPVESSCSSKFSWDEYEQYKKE
# Assay: IRAK endogenous HTRF degradation assay (Total-IRAK3 HTRF kit)
# Format: cell-based
# Set-up: IRAK Endogenous HTRF Degradation Assay; endogenous in cells
# Conditions: endogenous IRAK3, overnight incubation; % Dmax = 100 − Ymin
# Procedure: Example B2. IRAK Endogenous HTRF Degradation Assay
# Cells (~50k) were plated in Cisbio 96-well low volume white plates (Cisbio: cat #66PL96005). Compounds were dissolved in DMSO and a 3-fold serial dilution was performed using a TECAN D300E. Cells were incubated with the compound overnight. Total-IRAK3 HTRF kit from Cisbio was used for degradation analysis (Cisbio: 63ADK101PEH). Cryptate and D2 antibodies were diluted in Detection buffer as per manufacturers recommendation. Then 2 μL of each solution was added to 16 μL lysate. Buffer control (lysis buffer detection buffer), Cryptate control (lysis buffer+cryptate antibody+detection buffer), and Negative control (lysis buffer+cryptate antibody+D2 antibody) were made as per manufacturers recommendation. Post incubation with antibodies the HTRF signal was measured using a Perkin Elmer Envision reader and the HTRF signal was calculated using formula: (Emission at 665 nm/Emission at 615 nm)*10,000. All HTRF values were normalized to the average value of DMSO. The average value of the DMSO control wells were set to equal 100% of the relative IRAK3 protein levels. Normalized luminescence values were plotted on a graph as a function of compound concentration. Compound concentration was plotted on the x-axis and the corresponding normalized IRAK3 protein levels on the y-axis. The EC50 value (the half-maximum effective concentration) of a compound for the degradation of the IRAK3 was calculated using a four-parameter logistic model (sigmoidal dose-response model) (FIT=(A+{(B−A)/1+[(C/x)D]})) where C is the inflection point (EC50), D is the […], and A and B are the low and high limits of the fit, respectively). The Ymin was calculated by determining the lowest percentage of target protein remaining following compound treatment. Dmax was calculated from Ymin (% Dmax=100−Ymin).
# Using these assays, IC50, Dmax, EC50, and DC50 values of the following compounds were determined. Dmax is defined as the maximum percent degradation achieved and DC50 is the concentration at which 50% degradation is achieved.
row,Compound,Dmax
1,"Cc1ncsc1-c1ccc(CNC(=O)[C@@H]2C[C@@H](O)CN2C(=O)[C@@H](NC(=O)COCCOCCN2CCC(n3cc(-c4cnc(N)c(O[C@H](C)c5c(Cl)ccc(F)c5Cl)c4)cn3)CC2)C(C)(C)C)cc1 [Compound 2, (2S,4R)-1-((S)-2-(2-(2-(2-(4-(4-(6-amino-5-((R)-1-(2,6-dichloro-3-fluorophenyl)ethoxy)pyridin-3-yl)-1H-pyrazol-1-yl)piperidin-1-yl)ethoxy)ethoxy)acetamido)-3,3-dimethylbutanoyl)-4-hydroxy-N-(4-(4-methylthiazol-5-yl)benzyl)pyrrolidine-2-carboxamide]",35%
2,"Cc1ncsc1-c1ccc(CNC(=O)[C@@H]2C[C@@H](O)CN2C(=O)[C@@H](NC(=O)COCCOCCOCCOCCOCCOCCN2CCC(n3cc(-c4cnc(N)c(O[C@H](C)c5c(Cl)ccc(F)c5Cl)c4)cn3)CC2)C(C)(C)C)cc1 [Compound 6, (2S,4R)-1-((S)-23-(4-(4-(6-amino-5-((R)-1-(2,6-dichloro-3-fluorophenyl)ethoxy)pyridin-3-yl)-1H-pyrazol-1-yl)piperidin-1-yl)-2-(tert-butyl)-4-oxo-6,9,12,15,18,21-hexaoxa-3-azatricosanoyl)-4-hydroxy-N-(4-(4-methylthiazol-5-yl)benzyl)pyrrolidine-2-carboxamide]",56%
3,"Cc1ncsc1-c1ccc(CNC(=O)[C@@H]2C[C@@H](O)CN2C(=O)[C@@H](NC(=O)COCCOCCOCCOCCOCCOCCOCCN2CCC(n3cc(-c4cnc(N)c(O[C@H](C)c5c(Cl)ccc(F)c5Cl)c4)cn3)CC2)C(C)(C)C)cc1 [Compound 7, (2S,4R)-1-((S)-26-(4-(4-(6-amino-5-((R)-1-(2,6-dichloro-3-fluorophenyl)ethoxy)pyridin-3-yl)-1H-pyrazol-1-yl)piperidin-1-yl)-2-(tert-butyl)-4-oxo-6,9,12,15,18,21,24-heptaoxa-3-azahexacosanoyl)-4-hydroxy-N-(4-(4-methylthiazol-5-yl)benzyl)pyrrolidine-2-carboxamide]",50%
4,"C[C@@H](Oc1cc(-c2cnn(C3CCN(CCOCCOCCNC(=O)COc4cccc5c4C(=O)N(C4CCC(=O)NC4=O)C5=O)CC3)c2)cnc1N)c1c(Cl)ccc(F)c1Cl (stereo partly drawn) [Compound 10, N-(2-(2-(2-(4-(4-(6-amino-5-((R)-1-(2,6-dichloro-3-fluorophenyl)ethoxy)pyridin-3-yl)-1H-pyrazol-1-yl)piperidin-1-yl)ethoxy)ethoxy)ethyl)-2-((2-(2,6-dioxopiperidin-3-yl)-1,3-dioxoisoindolin-4-yl)oxy)acetamide]",37%
5,"Cc1ncsc1-c1ccc(CNC(=O)[C@@H]2C[C@@H](O)CN2C(=O)[C@@H](NC(=O)COCCOCCOCCOCCN2CCC(n3cc(-c4cnc(N)c(O[C@H](C)c5c(Cl)ccc(F)c5Cl)c4)cn3)CC2)C(C)(C)C)cc1 [Compound 4, (2S,4R)-1-((S)-17-(4-(4-(6-amino-5-((R)-1-(2,6-dichloro-3-fluorophenyl)ethoxy)pyridin-3-yl)-1H-pyrazol-1-yl)piperidin-1-yl)-2-(tert-butyl)-4-oxo-6,9,12,15-tetraoxa-3-azaheptadecanoyl)-4-hydroxy-N-(4-(4-methylthiazol-5-yl)benzyl)pyrrolidine-2-carboxamide]",21%
6,"C[C@@H](Oc1cc(-c2cnn(C3CCN(CCNC(=O)COc4ccc5c(c4)C(=O)N(C4CCC(=O)NC4=O)C5=O)CC3)c2)cnc1N)c1c(Cl)ccc(F)c1Cl (stereo partly drawn) [Compound 13, N-(2-(4-(4-(6-amino-5-((R)-1-(2,6-dichloro-3-fluorophenyl)ethoxy)pyridin-3-yl)-1H-pyrazol-1-yl)piperidin-1-yl)ethyl)-2-((2-(2,6-dioxopiperidin-3-yl)-1,3-dioxoisoindolin-5-yl)oxy)acetamide]",65%
